Format in all cases: cell-based
For assay [1], the system named is human A549 lung cell line stimulated with Omicron variant SARS-CoV-2 spike S1.
Assay [2] relates to human A549 lung cells challenged with UK variant (Alpha or N501Y) SARS-CoV-2 spike S1.
Assay [3] has as its system human A549 lung cells challenged with South Africa variant (E484K) SARS-CoV-2 spike S1.
In assay [4] the test system is human A549 lung cells challenged with Delta variant SARS-CoV-2 spike S1.

Regarding `O=C(O)c1ccc(O)cc1` [4HB, 4-hydroxybenzoate], the “Omicron variant spike S1-induced expression of TNFα and IL-1β (mRNA and promoter-luciferase activity)” value in assay [1] is “Significant inhibition”. For the same compound, the “IL-6 promoter-driven luciferase activity (reporter activity)” value (“IL-6 promoter-driven luciferase activity” below) in assay [2], in assay [3] and in assay [4] was “significant inhibition” throughout.

With `CC(C)=CCO` [prenol], the “Omicron variant spike S1-induced expression of TNFα and IL-1β (mRNA and promoter-luciferase activity)” value in assay [1] was “Significant inhibition”. Moreover, the “IL-6 promoter-driven luciferase activity” value in assay [2], in assay [3] and in assay [4] was “significant inhibition” in each case.

As to EDLFYQ (SPIDAR peptide) [wtSPIDAR], the “Omicron variant spike S1-induced expression of TNFα and IL-1β (mRNA and promoter-luciferase activity)” value in assay [1] is reported as “Significant inhibition”. For the same compound, the “IL-6 promoter-driven luciferase activity” value in assay [2], in assay [3] and in assay [4] was “significant inhibition” in each case.
